Where a SMILES comes first, the peptide text is derived from it. The star is where a group is joined. Palmitoyl = CCCCCCCCCCCCCCCC(=O)*
What was measured:
[1] = Tissue distribution (biodistribution) in rats; assay type: in vivo; conditions: FIG. 5C after intravenous injection
Text: FIG. 5C-tissue distribution after intravenous injection in rats, measured by ratio concentration tissue over plasma.
Following administration, molecules reach the systemic circulation via either the blood capillaries or the lymphatic system.

[2] = tested on: Dengue virus 2 (DENV2, ATCC VR-1584); assay: DENV2 infection in AG129 mice: clinical signs, body and spleen weights; assay type: in vivo; conditions: for Body weights of mice at the end of the study (Mean ± SD): b.i.d, n = 9; for general clinical signs of treated animals: 20 and 10 mg/kg
Method: The purpose of this study was to determine the efficacy of the compounds on Dengue virus 2 (DENV2, ATCC® VR-1584™) infection in AG129 mice.
Six groups of AG129 mice, 6-8 weeks old, with 9 mice per group were used to test compounds according to table 3.1.1. Animal room environment was monitored for temperature and relative humidity twice per day. The temperature range was 22° C.±3° C. and humidity range was 30-70%. The animals were provided with 12 hours light and 12 hours darkness. Feed and drinking water was provided ad libitum. Compounds 43 and 113 were tested.
C6/36 (ATCC(CRL-1660) cell lines were grown in RPMI 1640 medium (Gibco/HiMedia) plus 5% fetal bovine serum at 28° C. Dengue virus type 2 (ATCC®VR-1584™) New Guinea C(NGC, DENV2) was passaged in BHK-21 cell cultures to make sufficient stocks for assay. Virus titer was determined by TCID50 method using BHK-21 cells.
Twenty-four hours post treatment (Day 0), animals were injected intraperitoneally (IP) with 0.2 ml of virus suspension (˜5×10^7/animal).
The vehicle for tested compounds was 5% DMSO+95% (20%) hydroxypropylcyclodextrin. […] Formulations were prepared daily immediately before dosing.
(§1) Administration of compounds and vehicle to animals started twenty four hours before infection (Day −1). Animals were treated daily (From Day-1 to day 4) as per the experimental design shown below in table 3.1.5. Animals were monitored for general clinical signs, morbidity and mortality. Body weights were measured daily.
Animals were sacrificed on day 5 post infection with Isoflurane followed by an overdose of CO2. Spleens were excised, measured and weighed.
(§2) The Mean±SD Log10PFU/ml, relative Mean±SD spleen weight, Mean±SD biomarker concentrations were estimated in each group. Significant differences between group means and control were analyzed by one-way ANOVA, followed by a Dunnett's multiple comparison test, using GraphPad Prism 5 at 95% confidence levels. A p value of <0.05 was considered as significant.

ZIKA protease = target: T1, ZIKA protease (Zika virus, UniProt Q32ZE1); assay: biochemical; conditions: for inhibition at 1 µM / inhibition at 50 µM: read-out: inhibition of ZIKV
T1 construct: a trypsin-like serine protease domain in the N-terminal region of the flaviviral NS3 proteins

[3] = Cytotoxicity (method not described); assay type: cell-based
IL-12 = assay: DENV2 infection in AG129 mice: plasma IL-12 (ELISA); assay type: in vivo; conditions: 10 mg/kg I.P, b.i.d; n = 9; vs vehicle control
Method: as §1
Cytokine levels (TNF alpha, IL-6 and IL-12) in plasma samples were measured using Enzyme-Linked Immunosorbent Assay (ELISA). Mouse TNF alpha ELISA Kit (Abcam: ab208348), Mouse IL-6 ELISA Kit (Abcam: ab100712), and Mouse IL-12 p40+IL-12 p70 ELISA Kit (Abcam: ab100699) were used to estimate TNF alpha, IL-6 and IL-12, respectively. The assays were performed according to the manufacturer's instructions and was analysed on a TECAN-NanoQuant Plate™ system.
as §2

[4] = parameters: species or system mice; conditions: mouse, in vivo
Text: FIG. 5A-multidose PK-profiles of compound 113 in mice after intravenous (IV), intraperitoneal (IP) and subcutaneous (SC) administration to mice (dosed twice per day for 5 days, mean of 3 mice per group).
FIG. 5D-multidose PK-profiles of compound 43 in mice after intravenous (IV), intraperitoneal (IP) and subcutaneous (SC) administration to mice (dosed twice per day for 5 days, mean of 3 mice per group).
Similar data was obtained with compound 43 (FIG. 5D)

human Trypsin = human Trypsin (Homo sapiens, UniProt P07477); assay: Selectivity screening, human serine protease trypsin; assay type: biochemical; conditions: read-out: inhibition of human Trypsin
How it was run: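 Active candidates were counter-screened for selectivity against the human serine protease trypsin in a biochemical assay similar to the flavivirus protease assay. Cleavage of a substrate by protease activity raises fluorescence, which is read on a microtiter fluorescence plate reader. Compounds are diluted from 10 mM DMSO stocks and tested in triplicate, and inhibition of trypsin is reported.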

WNV protease = target: T2, WNV protease (West Nile virus, UniProt P06935); assay: WNV protease assay (analogous procedure); assay type: biochemical; conditions: at 50 μM
T2 construct: a trypsin-like serine protease domain in the N-terminal region of the flaviviral NS3 proteins
How it was run: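 Adapted from the DENV protease assay: inhibitors preincubated 15 min with protease (DENV at 100 nM) in 50 mM Tris-HCl pH 9.0, 10% ethylene glycol, 0.0016% Brij 58, then FRET substrate (50 μM final) added.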

human Thrombin = human Thrombin (Homo sapiens, UniProt P00734); assay: Selectivity screening, human serine protease thrombin; assay type: biochemical; conditions: at 5 μM; read-out: inhibition of human Thrombin

T1 sequence (Q32ZE1 1499-1676): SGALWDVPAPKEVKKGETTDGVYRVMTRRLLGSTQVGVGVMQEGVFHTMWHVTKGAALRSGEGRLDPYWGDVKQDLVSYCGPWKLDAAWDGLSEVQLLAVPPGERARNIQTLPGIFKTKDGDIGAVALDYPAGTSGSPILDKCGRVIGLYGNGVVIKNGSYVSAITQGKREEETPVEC
T1 sequence (Q32ZE1 1421-1460): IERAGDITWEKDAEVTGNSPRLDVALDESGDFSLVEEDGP
T2 sequence (P06935 1424-1463): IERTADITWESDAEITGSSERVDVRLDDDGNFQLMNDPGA
T2 sequence (P06935 1502-1679): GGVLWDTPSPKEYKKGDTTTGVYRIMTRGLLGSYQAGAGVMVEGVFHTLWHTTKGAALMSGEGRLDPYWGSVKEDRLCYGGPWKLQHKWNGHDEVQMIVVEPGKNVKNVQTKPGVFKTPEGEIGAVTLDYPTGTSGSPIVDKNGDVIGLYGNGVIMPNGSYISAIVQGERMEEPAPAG

With CCCCCCCCCCCCCCCC(=O)N[C@@H](CCCCN)CC(=O)N[C@@H](C)C(=O)N[C@@H](C)CC(=O)N[C@H](CCCCN)C(N)=O (stereo in doubt) [compound 113] the EC50 (ZIKV) was ≤ 10 µM, the “tissue distribution, concentration in tissue (liver and spleen) versus plasma” value [1] was “could reach the main target sites of dengue” and the “Body weights of mice at the end of the study (Mean ± SD)” value (“Body weights of mice … (Mean ± SD)” for short) ([2]; 10 mg/kg I.P) was 17.22 ± 1.39 g. For the same molecule, the “Body weights of mice … (Mean ± SD)” value ([2]; 20 mg/kg I.P) was 16.89 ± 1.36 g, the “general clinical signs of treated animals” value [2] was “apparently normal” and the IC50 (ZIKA protease) was ≤ 25 µM. For the same molecule, the inhibition at 1 µM (ZIKA protease) was ≥ 10%, the inhibition at 50 µM (ZIKA protease) was ≥ 65% and the cytotoxicity [3] was “minimal cytotoxicity”. The “Plasma concentration of IL-12 in mouse plasma after treatment” value (IL-12) was 81.79 ± 14.30, the pharmacokinetic profiles [4] was “reliable pharmacokinetic profiles with limited inter animal variability and dose proportionality” and the “elimination in blood plasma” value ([4]; sc) was “slow elimination”. For the same molecule, the “pharmacokinetic behaviour when administered subcutaneously” value ([4]; sc) was “improved pharmacokinetic behaviour” and the EC50 (West Nile virus) was ≤ 25 µM.
In the case of CCCCCCCCCCCCCCCC(=O)N[C@@H](CCCNC(=N)N)C(=O)N[C@@H](CCC(N)=O)C(=O)N[C@@H](Cc1ccccc1)C(N)=O [compound 43] (Palmitoyl-Arg-Gln-Phe-NH2), the inhibition at 5 µM (human Trypsin; at 5 μM) is reported as < 10%, the inhibition at 25 µM (human Trypsin; at 25 μM) is reported as < 20% and the inhibition at 50 µM (WNV protease) is reported as ≥ 25%. The “Body weights of mice … (Mean ± SD)” value ([2]; 10 mg/kg I.P) was 18.78 ± 2.28 g, the “Body weights of mice … (Mean ± SD)” value ([2]; 20 mg/kg I.P) was 18.11 ± 1.45 g and the “general clinical signs of treated animals” value [2] was “apparently normal”. For the same molecule, the IC50 (ZIKA protease) was ≤ 25 µM, the inhibition at 1 µM (ZIKA protease) was ≥ 10% and the inhibition at 50 µM (ZIKA protease) was ≥ 65%. The inhibition at 5 µM (human Thrombin) was < 5%, the “pharmacokinetic behaviour when administered subcutaneously” value ([4]; sc) was “improved pharmacokinetic behaviour” and the EC50 (West Nile virus) was ≤ 25 µM.

Reference: patent US20250059231A1, “Protease inhibitors” (priority 2021, published 2025)
